{"source": "patent US4104285A", "about": "“Taurine and glycine derivatives” (Hoffmann-La Roche Inc., priority 1977, dated 1978)", "key": {"bile flow": {"tested_on": "bile flow", "assay": "stimulation of bile flow in rats, duodenal infusion", "type": "in vivo, female albino rats", "conditions": "100 mg by duodenal infusion in 4ml emulsion, compared to rats which received only the emulsion", "experimental": "The compounds of formula I-A are active in stimulation of bile flow which results in the dissolution of gall stones. This can be seen from the fact that when 100 mg of N-(3α,12α-dihydroxy-5β-24-norcholanoyl)-taurine was administered by duodenal infusion to female albino rats in a 4ml emulsion of sodium taurocholate in […], the flow of bile was increased 15% during the first 8 hours and 30% during the period of 9 to 15 hours after administration compared to the flow in rats which received only the emulsion without the taurine compound. […] This enabled the production of lymph at a constant rate, the infusion of a bile salt and the simultaneous collection of bile."}, "rat pancreatic lipase": {"target": "T1, rat pancreatic lipase (Rattus norvegicus, UniProt P27657)", "T1 sequence (P27657 17-465)": "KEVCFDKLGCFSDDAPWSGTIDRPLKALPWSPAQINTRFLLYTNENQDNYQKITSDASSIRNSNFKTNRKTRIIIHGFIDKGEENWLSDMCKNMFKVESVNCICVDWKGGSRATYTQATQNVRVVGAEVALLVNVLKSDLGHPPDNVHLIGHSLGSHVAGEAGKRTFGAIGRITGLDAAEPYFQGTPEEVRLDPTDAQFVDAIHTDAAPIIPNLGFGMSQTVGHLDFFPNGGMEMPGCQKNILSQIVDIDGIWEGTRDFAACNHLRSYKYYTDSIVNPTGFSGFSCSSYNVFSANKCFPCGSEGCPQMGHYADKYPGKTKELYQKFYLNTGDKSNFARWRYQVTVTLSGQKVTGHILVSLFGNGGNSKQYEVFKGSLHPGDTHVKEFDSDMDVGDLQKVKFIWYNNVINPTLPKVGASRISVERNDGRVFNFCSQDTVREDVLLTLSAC", "assay": "inhibition of rat pancreatic lipase activity in vitro", "type": "biochemical", "conditions": "[14C]-triolein emulsion, pH 8.6, 20 min. at 37° C", "experimental": "Dietary long-chain triglycerides must be hydrolyzed by pancreatic lipase in the duodenum before absorption can occur. […] The capacity of compounds of formula I-C to inhibit rat pancreatic lipase in vitro was investigated by testing the following compounds: The ability of compounds to inhibit rat pancreatic lipase is determined by analyzing the nmoles of free fatty acid [oleic acid] released from [^14 C]-triolein. Compounds of A and B are added to an emulsion consisting of: 200,000 dmp ^14 C-triolein, 7.5 mg triolein, 0.75 mg sodium taurocholate, 15 mg bovine serum albumin and 0.9 ml 0.2 M tris-HCl - 0.15 M NaCl, pH 8.6, per assay. Water and/or pancreatic lipase is added to make an assay volume of 1.0 ml. The emulsion is incubated for 20 min. at 37° C in a shaking water bath. The reaction is stopped by the addition of isopropanol; H2 SO4 (40:1). The lipids are extracted twice with 3 ml volumes of hexane. The liberated fatty acids are extracted with 2 ml of 0.1 N aqueous KOH in 50% methanol. A 1 ml aliquot of the KOH layer is placed in a scintillation vial with 10 ml of 2,5-bis-2-(5-tertiary butyl benzoxazolyl)thiophene. The radioactivity is determined in a scintillation counter. Data are expressed a nmoles free fatty acid [oleic acid] related."}, "[1]": {"tested_on": "cholesterol level in the lymph", "assay": "cholesterol level in thoracic duct lymph of rats after oral administration with 4-14C-cholesterol emulsion", "type": "in vivo, female albino rats (Charles River)", "conditions": "100mg orally, compared to control (Na-TC)", "experimental": "The lowering of the cholesterol levels in mammals by the administration of the compound of formula I-B can be seen from the fact that when 100mg of N-(3α,12α-dihydroxyetiocholanoyl)glycine was administered orally to female albino rats, the cholesterol level in the lymph was decreased after administration by 86% over the first 8 hours and 94% over the next 9 to 24 hr. period after administration as compared to the control. In this procedure, female albino rats (Charles River), weighing 300 ± 10 g were kept on a Purina chow diet ad libitum until the time of operation. […] This preparation enabled the production of lymph at a constant rate, the infusion of a bile salt, and the simultaneous collection of bile. All animals received, after operation, a continuous duodenal infusion of sodium taurocholate (Na-TC) in 0.85% NaCl. One day after operation, the rats were given, by stomach intubation, an emulsion containing about 4% triolein, 20 μ C of 4-^14 C-cholesterol (Specific Activity 61.7 mC/mM, 159 μ C/mg), 2 mg of cholesterol, in addition to protein, carbohydrate, and saline. Both the Na-TC and the cholesterol carrier employed gave a single spot on either thin layer or glass fiber paper chromatograph so no further purification was attempted. […] An aliquot of the lipid extract was placed on a small piece of glass fiber paper and counted. […]"}, "triglyceride absorption": {"tested_on": "triglyceride absorption", "assay": "effect on triglyceride absorption in vivo, rise in plasma triglycerides after oral load of corn oil", "design": "species or system rats", "experimental": "The ability of compound I to inhibit the absorption of dietary triglyceride in rats is determined by analyzing the rise in serum triglycerides after an oral load of corn oil. […] In this procedure blood samples (0.4 ml) were collected from the rat tail 0, 2, 4, 6, 8 and 24 hours after compound administration. Each rat is its own control. Plasma samples were analyzed for triglyceride content by the procedure set forth in Kessler and Lederer, Tehnicon Symposium 1965 Automation in Analytical Chemistry Ed L. Skeggs, published Mediad Inc. New York (1966) pp 341. The data in Table I is expressed as mg% change in plasma triglyceride levels compared to zero time control values at each time interval. This change in plasma triglycerides was determined by calculating the difference between the triglyceride level at each time point compared to zero time contol level."}}}
{"smiles": "C[C@H](CC(=O)NCCS(=O)(=O)O)[C@H]1CC[C@H]2[C@@H]3CC[C@@H]4C[C@H](O)CC[C@]4(C)[C@H]3C[C@H](O)[C@]12C", "note": "[Compound A, N-(3α,12α-dihydroxy-5β-24-norcholanoyl)-taurine]", "values": [{"measurement": "increase in flow of bile", "setting": "bile flow; during the first 8 hours after administration", "result": 15, "unit": "%"}, {"measurement": "increase in flow of bile", "setting": "bile flow; period of 9 to 15 hours after administration", "result": 30, "unit": "%"}, {"measurement": "Ki", "setting": "rat pancreatic lipase", "result": 7, "unit": "mM"}]}
{"smiles": "C[C@H](CC(=O)NCC(=O)O)[C@H]1CC[C@H]2[C@@H]3CC[C@@H]4C[C@H](O)CC[C@]4(C)[C@H]3C[C@H](O)[C@]12C", "note": "[Compound B, N-(3α,12α-dihydroxy-5β-24-norcholanoyl)glycine]", "values": [{"measurement": "Ki", "setting": "rat pancreatic lipase", "result": 8, "unit": "mM"}]}
{"smiles": "C[C@]12CC[C@@H](O)C[C@H]1CC[C@@H]1[C@@H]2C[C@H](O)[C@]2(C)[C@@H](C(=O)NCC(=O)O)CC[C@@H]12", "note": "[N-(3α,12α-dihydroxyetiocholanoyl)glycine]", "values": [{"measurement": "decrease of cholesterol level in the lymph (4-14C-cholesterol, % decrease over the control)", "setting": "[1]; first 8 hours after administration", "result": 86, "unit": "%"}, {"measurement": "decrease of cholesterol level in the lymph (4-14C-cholesterol, % decrease over the control)", "setting": "[1]; next 9 to 24 hr. period after administration", "result": 94, "unit": "%"}, {"measurement": "ability to inhibit absorption of triglyceride", "setting": "triglyceride absorption; 1.1 m moles/kg orally 15 minutes before oral corn oil, 24 hour fasted rats", "result": "inhibit absorption of triglyceride"}, {"measurement": "Change in Plasma Triglyceride Levels, 4 hr", "setting": "triglyceride absorption; 1.1 m moles/kg orally 15 minutes before oral corn oil, 24 hour fasted rats, 4 hr vs zero time, Control 98 ± 31", "result": "107 ± 17", "unit": "mg %"}, {"measurement": "Change in Plasma Triglyceride Levels, 6 hr", "setting": "triglyceride absorption; 1.1 m moles/kg orally 15 minutes before oral corn oil, 24 hour fasted rats, 6 hr vs zero time, Control 161 ± 28", "result": "130 ± 17", "unit": "mg %"}, {"measurement": "Change in Plasma Triglyceride Levels, 8 hr", "setting": "triglyceride absorption; 1.1 m moles/kg orally 15 minutes before oral corn oil, 24 hour fasted rats, 8 hr vs zero time, Control 391 ± 58", "result": "167 ± 22", "unit": "mg %"}, {"measurement": "Change in Plasma Triglyceride Levels, 24 hr", "setting": "triglyceride absorption; 1.1 m moles/kg orally 15 minutes before oral corn oil, 24 hour fasted rats, 24 hr vs zero time, Control 130 ± 36", "result": "46 ± 5", "unit": "mg %"}, {"measurement": "Change in Plasma Triglyceride Levels, 2 hr", "setting": "triglyceride absorption; po", "result": "29 ± 3", "unit": "mg %"}]}
